{
  "source": "PubChem BioAssay AID1259411",
  "about": "(Chemical Carcinogenesis Research Information System (CCRIS), 2018)",
  "test_system": "rodent carcinogenicity bioassays, tumor incidence",
  "experiment": "CCRIS carcinogenicity studies",
  "summary_of_the_method": "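NCI-built, expert-reviewed records of carcinogenicity and related test outcomes (mutagenicity, tumor promotion/inhibition) compiled from published and report sources, historical span 1985-2011, not updated.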",
  "note": "Activity calls are given as the source filed them. How the calls were made is not given here.",
  "data": [
    {"smiles": "Nc1ccc(-c2ccc(N)c(Cl)c2)cc1Cl", "values": [
      {"measurement": "carcinogen call", "setting": "Species: HAMSTER, Route: ORAL, Tumor Site: Type of Lesion: URINARY BLADDER", "value": "active; positive"},
      {"measurement": "carcinogen call", "setting": "Species: RAT, Route: ORAL, Tumor Site: Type of Lesion: EAR (ZYMBAL GLAND), MAMMARY GLAND, INTEGUMENTARY SYSTEM (SKIN), HEMATOPOIETIC SYSTEM, URINARY BLADDER, Tumor Site: Type of Lesion: EAR (ZYMBAL GLAND), MAMMARY GLAND, INTEGUMENTARY SYSTEM (SKIN), HEMATOPOIETIC SYSTEM, URINARY BLADDER", "value": "active; positive"},
      {"measurement": "carcinogen call", "setting": "Species: RAT, Route: SUBCUTANEOUS, Tumor Site: Type of Lesion: MAMMARY GLAND, INTEGUMENTARY SYSTEM (SKIN)", "value": "active; positive"}
    ]},
    {"smiles": "CO[C@H]1C[C@]2(C)[C@@H](O)CC[C@H]2[C@@H]2CCc3cc(O)ccc3[C@H]21", "values": [
      {"measurement": "carcinogen call", "setting": "Species: HAMSTER, Strain/Sex: SYRIAN/MALE, Route: SUBCUTANEOUS IMPLANT, Dose: 0, 20 MG IN PELLETS IMPLANTED EVERY 2.5 MO FOR 9 MO (STUDY DURATION: 9 MO), Tumor Site: Type of Lesion: KIDNEY: TUMOR", "value": "active; positive"}
    ]},
    {"smiles": "N=C1C=CC(=C(c2ccc(N)cc2)c2ccc(N)cc2)C=C1", "values": [
      {"measurement": "carcinogen call", "setting": "Species: MOUSE, Strain/Sex: B6C3F1/FEMALE, Route: ORAL, Dose: 0, 500, 1000 PPM IN DIET FOR 103 WK (STUDY DURATION: 110-113 WK), Dose: 0, 500, 1000 PPM IN DIET FOR 103 WK (STUDY DURATION: 110-113 WK), Tumor Site: Type of Lesion: LUNG: ALVEOLAR/BRONCHIOLAR ADENOMA, ALVEOLAR/BRONCHIOLAR ADENOMA OR CARCINOMA;LIVER: HEPATOCELLULAR ADENOMA, HEPATOCELLU", "value": "active; positive"},
      {"measurement": "carcinogen call", "setting": "Species: MOUSE, Strain/Sex: B6C3F1/MALE, Route: ORAL, Dose: 0, 500, 1000 PPM IN DIET FOR 103 WK (STUDY DURATION: 113-115 WK), Dose: 0, 500, 1000 PPM IN DIET FOR 103 WK (STUDY DURATION: 113-115 WK), Tumor Site: Type of Lesion: LIVER: HEPATOCELLULAR CARCINOMA, HEPATOCELLULAR ADENOMA OR CARCINOMA", "value": "active; positive"},
      {"measurement": "carcinogen call", "setting": "Species: RAT, Strain/Sex: F344/FEMALE, Route: ORAL, Dose: 0, 500, 1000 PPM IN DIET FOR 103 WK (STUDY DURATION: 110-113 WK), Dose: 0, 500, 1000 PPM IN DIET FOR 103 WK (STUDY DURATION: 110-113 WK), Tumor Site: Type of Lesion: INTEGUMENTARY SYSTEM (SUBCUTANEOUS TISSUE): FIBROMA, FIBROMA OR FIBROSARCOMA, FIBROMA OR SARCOMA OR FIBROSARCOMA, MAMMAR", "value": "active; positive"},
      {"measurement": "carcinogen call", "setting": "Species: RAT, Strain/Sex: F344/MALE, Route: ORAL, Dose: 0, 1000, 2000 PPM IN DIET FOR 103 WK (STUDY DURATION: 110-113 WK), Dose: 0, 1000, 2000 PPM IN DIET FOR 103 WK (STUDY DURATION: 110-113 WK), Tumor Site: Type of Lesion: INTEGUMENTARY SYSTEM (SKIN): SQUAMOUS CELL CARCINOMA, SQUAMOUS CELL PAPILLOMA OR CARCINOMA, TRICHOEPITHELIOMA, SEBACEOUS", "value": "active; positive"},
      {"measurement": "carcinogen call", "setting": "Species: RAT, Strain/Sex: SPRAGUE-DAWLEY/FEMALE, Route: GAVAGE, Dose: 0, 300 MG/KG BW 2/WK FOR 18 WK WITH A 1 WK REST AFTER 12 WK THEN STARTING AT 19 WK 150 MG/KG BW 2/WK FOR DURATION OF STU", "value": "inactive; negative"},
      {"measurement": "carcinogen call", "setting": "Species: RAT, Strain/Sex: SPRAGUE-DAWLEY/MALE, Route: GAVAGE, Dose: 0, 300 MG/KG BW 2/WK FOR 18 WK WITH A 1 WK REST AFTER 12 WK THEN STARTING AT 19 WK 150 MG/KG BW 2/WK FOR DURATION OF STU", "value": "inactive; negative"}
    ]},
    {"smiles": "CC(C)(C)Br", "values": [
      {"measurement": "carcinogen call", "setting": "Species: MOUSE, Route: INTRAPERITONEAL, Tumor Site: Type of Lesion: LUNG", "value": "active; positive"}
    ]},
    {"smiles": "C1CC2OC2CC1C1CO1", "note": "(stereo unspecified)", "values": [
      {"measurement": "carcinogen call", "setting": "Species: MOUSE, Route: DERMAL, Tumor Site: Type of Lesion: INTEGUMENTARY SYSTEM (SKIN)", "value": "active; positive"},
      {"measurement": "carcinogen call", "setting": "Species: MOUSE, Strain/Sex: B6C3F1/FEMALE, Route: DERMAL, Dose: 0, 2.5, 5, 10 MG/MOUSE IN ACETONE 5 D/WK FOR 103 WK, HIGH DOSE FEMALE MICE 85 WK (STUDY DURATION: 105 WK), Dose: 0, 2.5, 5, 10 MG/MOUSE IN ACETONE 5 D/WK FOR 103 WK, HIGH DOSE FEMALE MICE 85 WK (STUDY DURATION: 105 WK), Tumor Site: Type of Lesion: LUNG: ALVEOLAR/BRONCHIOLAR ADENOMA OR CARCINOMA, OVARY: GRANULOSA CELL TUMOR, GRANULOSA CELL TUMOR OR MALIGNANT GRANULOS", "value": "active; positive"},
      {"measurement": "carcinogen call", "setting": "Species: MOUSE, Strain/Sex: B6C3F1/MALE, Route: DERMAL, Dose: 0, 2.5, 5, 10 MG/MOUSE IN ACETONE 5 D/WK FOR 103 WK (STUDY DURATION: 105 WK), Dose: 0, 2.5, 5, 10 MG/MOUSE IN ACETONE 5 D/WK FOR 103 WK (STUDY DURATION: 105 WK), Tumor Site: Type of Lesion: SKIN (APPLICATION SITE): BASOSQUAMOUS TUMOR MALIGNANT, BASOSQUAMOUS TUMOR MALIGNANT OR BASAL CELL CARCINOMA, SQUAMOUS CE", "value": "active; positive"},
      {"measurement": "carcinogen call", "setting": "Species: RAT, Strain/Sex: F344/FEMALE, Route: DERMAL, Dose: 0, 15, 30 MG/RAT IN ACETONE 5 D/WK FOR 105 WK (STUDY DURATION: 106 WK), Dose: 0, 15, 30 MG/RAT IN ACETONE 5 D/WK FOR 105 WK (STUDY DURATION: 106 WK), Tumor Site: Type of Lesion: SKIN (APPLICATION SITE): BASAL CELL CARCINOMA, SEBACEOUS GLAND ADENOMA OR BASAL CELL CARCINOMA, SQUAMOUS CELL CARCINOMA", "value": "active; positive"},
      {"measurement": "carcinogen call", "setting": "Species: RAT, Strain/Sex: F344/MALE, Route: DERMAL, Dose: 0, 15, 30 MG/RAT IN ACETONE 5 D/WK FOR 105 WK (STUDY DURATION: 106 WK), Dose: 0, 15, 30 MG/RAT IN ACETONE 5 D/WK FOR 105 WK (STUDY DURATION: 106 WK), Tumor Site: Type of Lesion: SKIN (APPLICATION SITE): BASAL CELL ADENOMA, BASAL CELL CARCINOMA, BASAL CELL ADENOMA OR SEBACEOUS GLAND ADENOMA, SQUAMO", "value": "active; positive"}
    ]},
    {"smiles": "CCCCC(CC)COC(=O)c1ccc(C(=O)OCC(CC)CCCC)cc1", "note": "(stereo unspecified)", "values": [
      {"measurement": "carcinogen call", "setting": "Species: Rat, Strain/Sex: Fischer 344/Female, Route: Oral, Dose: 0, 1500, 6000, 12,000 ppm in diet for 104 wk (average daily dose 0, 102, 418, 901 mg/kg/day), Dose: 0, 1500, 6000, 12,000 ppm in diet for 104 wk (average daily dose 0, 102, 418, 901 mg/kg/day)", "value": "inactive; negative"},
      {"measurement": "carcinogen call", "setting": "Species: Rat, Strain/Sex: Fischer 344/Male, Route: Oral, Dose: 0, 1500, 6000, 12,000 ppm in diet for 104 wk (average daily dose 0, 79, 324, 666 mg/kg/day), Dose: 0, 1500, 6000, 12,000 ppm in diet for 104 wk (average daily dose 0, 79, 324, 666 mg/kg/day)", "value": "inactive; negative"}
    ]},
    {"smiles": "CCC(=O)N(O)c1ccc(-c2ccccc2)cc1", "values": [
      {"measurement": "carcinogen call", "setting": "Species: RAT, Strain/Sex: STRAIN-CD/FEMALE, Route: INTRAPERITONEAL, Dose: 0, 100 UMOL/KG BW 2/WK FOR 6 WK (STUDY DURATION: 62 WK)", "value": "inactive; negative"}
    ]},
    {"smiles": "CC1CN(N=O)CCO1", "note": "(stereo unspecified)", "values": [
      {"measurement": "carcinogen call", "setting": "Species: HAMSTER, Strain/Sex: SYRIAN/MALE, Route: INTRAGASTRIC, Dose: 0, 27 MG/ML IN 0.2 ML STERILIZED WATER 1/WK FOR 30 WK (TOTAL DOSE 162 MG) (STUDY DURATION: LIFESPAN), Tumor Site: Type of Lesion: LIVER: HEMANGIOSARCOMA, NASAL CAVITY: CARCINOMA, LUNG: CARCINOMA, ADENOMA, FORESTOMACH: PAPILLOMA, TRACHEA: ADENOMA, Tumor Site: Type of Lesion: LIVER: HEMANGIOSARCOMA, NASAL CAVITY: CARCINOMA, LUNG: CARCINOMA, ADENOMA, FORESTOMACH: PAPILLOMA, TRACHEA: ADENOMA", "value": "active; positive"}
    ]},
    {"smiles": "Nc1ccc(N)c([N+](=O)[O-])c1", "values": [
      {"measurement": "carcinogen call", "setting": "Species: MOUSE, Strain/Sex: B6C3F1/FEMALE, Route: ORAL, Dose: 0, 2200, 4400 PPM IN DIET, Dose: 0, 2200, 4400 PPM IN DIET, Tumor Site: Type of Lesion: LIVER: HEPATOCELLULAR ADENOMA OR CARCINOMA", "value": "active; positive"},
      {"measurement": "carcinogen call", "setting": "Species: MOUSE, Strain/Sex: B6C3F1/MALE, Route: ORAL, Dose: 0, 2200, 4400 PPM IN DIET, Dose: 0, 2200, 4400 PPM IN DIET", "value": "inactive; negative"},
      {"measurement": "carcinogen call", "setting": "Species: RAT, Strain/Sex: F344/FEMALE, Route: ORAL, Dose: 0, 1100, 2200 PPM IN DIET, Dose: 0, 1100, 2200 PPM IN DIET", "value": "inactive; negative"},
      {"measurement": "carcinogen call", "setting": "Species: RAT, Strain/Sex: F344/MALE, Route: ORAL, Dose: 0, 550, 1100 PPM IN DIET, Dose: 0, 550, 1100 PPM IN DIET", "value": "inactive; negative"}
    ]},
    {"smiles": "CC1=CC(C)(C)N(N=O)c2ccccc21", "values": [
      {"measurement": "carcinogen call", "setting": "Species: RAT, Strain/Sex: CB/MALE, Route: INTRAPERITONEAL, Dose: 0, 25 MG IN POLYETHYLENE GLYCOL 400 1/WK FOR 6 MO FOR A TOTAL DOSE OF 0, 650 MG (STUDY DURATION: 24 MO), Dose: 0, 25 MG IN POLYETHYLENE GLYCOL 400 1/WK FOR 6 MO FOR A TOTAL DOSE OF 0, 650 MG (STUDY DURATION: 24 MO), Tumor Site: Type of Lesion: PERITONEUM: SARCOMA", "value": "active; positive"}
    ]},
    {"smiles": "O=[N+]([O-])c1c2ccccc2cc2c3ccccc3c3ccccc3c12", "values": [
      {"measurement": "carcinogen call", "setting": "Species: MOUSE, Strain/Sex: B6C3F1/MALE, Route: INTRAPERITONEAL, Dose: 0, 400 NMOL IN 35 µL DMSO ON DAYS 1 (1/7 TOTAL DOSE), 8 (2/7 TOTAL DOSE), AND 15 (4/7 TOTAL DOSE) AFTER BIRTH (STUDY DUR", "value": "inactive; negative"}
    ]}
  ]
}
